In publication PMC2642983 (AIDS (London, England), 2009):
Like-named read-outs stand apart in the source and are kept apart here. Marks after values point to notes of the source that are not given here.

How the values were obtained:
[1] = Population pharmacokinetic modelling; format: in vivo, human; details: for CSF penetration (% of plasma concentration): modeled estimate
HIV RNA in the CSF [2] = test: Detectable HIV RNA in CSF by CSF atazanavir detectability; format: in vivo
wild-type HIV = details: estimated with no protein (protein-free medium); cited from earlier work
plasma proteins = details: no reference given; cited from earlier work
[3] = cited from earlier work
[4] = for CSF concentrations fold lower than plasma concentrations: even with ritonavir boosting
HIV RNA in the CSF [5] = details: over 3 weeks, all 13 participants receiving monotherapy; cited from earlier work
[6] = atazanavir with ritonavir, listed as atazanavir

COC(=O)N[C@H](C(=O)N[C@@H](Cc1ccccc1)[C@@H](O)CN(Cc1ccc(-c2ccccn2)cc1)NC(=O)[C@@H](NC(=O)OC)C(C)(C)C)C(C)(C)C [Atazanavir, atazanavir]
Intersubject variability of ke ([1]; atazanavir with ritonavir): 17% | Residual variability of CSF concentrations ([1]; atazanavir with ritonavir): 26% | Residual variability of plasma concentrations ([1]; atazanavir with ritonavir): 49% | oral clearance ([1]; atazanavir with ritonavir, corresponds to ke and Vd/F): 9.4 L/h | Residual variability of CSF concentrations [1, 6]: 26% | Residual variability of plasma concentrations [1, 6]: 49% | CSF penetration (% of plasma concentration) ([1]; atazanavir with ritonavir): 0.0074 (0.74%) | CSF penetration (% of plasma concentration) [1, 6]: 0.74% | Vd/F ([1]; human, plasma, oral): 209 L | half-life ([1]; human, plasma, oral): 900 min | k el ([1]; human, plasma, oral): 1.25e-05 s⁻¹ | participants with measurable CSF HIV RNA (HIV RNA in the CSF [2]; 12/60 participants with more than 5 ng/ml atazanavir in the CSF, P = 0.13): 20% | participants with detectable (>50 copies/ml) HIV RNA in the CSF (HIV RNA in the CSF [2]; seven of 19 participants with no measurable atazanavir in the CSF): 37% | wild-type IC50 (wild-type HIV): 1 ng/mL | bound to plasma proteins (plasma proteins): 86% | free (not bound to plasma proteins) (plasma proteins): 14% | atazanavir CSF concentrations, average % of plasma concentrations ([3]; in vivo): 0.9% | CSF atazanavir concentrations as % of plasma concentrations ([3]; seven HIV-infected patients): approximately 1% | median (IQR) plasma concentration (11 samples with no detectable CSF atazanavir but measurable plasma atazanavir): 315 (280–432) ng/ml | estimated free concentration of atazanavir in plasma (14% of 1510 ng/ml): approximately 210 ng/ml | plasma samples with undetectable atazanavir (<0.13 μg/ml, 17 of 149 samples): 11% | Median (interquartile range) plasma atazanavir concentration (atazanavir alone, without ritonavir): 523 (283–1344) ng/ml | median (IQR) plasma concentration (corresponding to the 60 CSF samples with detectable atazanavir): 1743 (925–2919) ng/ml | Median (interquartile range) plasma atazanavir concentration (with concomitant ritonavir): 1278 (525–2265) ng/ml | Median (range) plasma concentration (with ritonavir 100 mg daily, 130 plasma samples): 1278 (<128–5295) ^* ng/ml | Median (range) plasma concentration (without ritonavir, 18 plasma samples, 300 or 400 mg atazanavir daily): 523 (<128–6200) ng/ml | CSF specimens with concentrations near the protein-free IC50 (<5 ng/ml) ([4]; 11/67, after excluding probable nonadherence): 16% | CSF samples with undetectable atazanavir ([4]; <5 ng/ml, 19 of 79 samples): 24% | observed CSF concentrations ([4]; as summarised in the discussion): 10 ng/mL | CSF concentrations fold lower than plasma concentrations [4]: about 100 fold | CSF concentrations fold lower than plasma concentrations ([4]; listed as atazanavir): 100 fold | Kp ([4]; human, CSF, oral): < 0.01 | Median (interquartile range) CSF concentration ([4]; with ritonavir): 10.3 (<5–21.1) ng/ml | Median (range) CSF concentration ([4]; with ritonavir, 68 CSF samples): 10.3 (<5–38) ^† ng/ml | Median (interquartile range) CSF concentration ([4]; without ritonavir): 7.9 (6.6–22) ng/ml | Median (range) CSF concentration ([4]; without ritonavir, 11 CSF samples): 7.9 (<5–40) ng/ml

lopinavir/ritonavir
change in CSF HIV RNA levels (HIV RNA in the CSF [5]): substantial declines in CSF HIV RNA levels
